Measured values from PMC9672079, “Micro-PET imaging of hepatitis C virus NS3/4A protease activity using a protease-activatable retention probe” (Frontiers in Microbiology, 2022).

Assays:
HCC36 cells [1] = test: Retention of TAT-ΔNS3/4A-FITC in control cells, fluorescence microscopy; assay type: cell-based, Human; settings: fluorescence microscope
Description: (§1) HCC36 or NS3/4A-HCC36 cells (1 × 10^5) were seeded with DMEM containing 10% serum in a 24-well plate at 37°C in a CO2 incubator overnight. The cells were incubated with 10 μM of TAT-ΔNS3/4A-FITC in the presence or absence of 2 μM telaprevir (purchased from Legend Star International, Taiwan) at 37°C for 1 h. After probe staining, the cells were washed using DMEM containing 10% serum per 20 min until the end of the experiment. After 8 h washing, the fluorescence of viable cells was observed under a fluorescence microscope at the indicated times (Axiovert 200, Carl Zeiss MicroImaging, GmbH, Germany).
Infectious HCV particles were generated as previously described ([Hayashi et al., 2014]). HCC36 cells (1 × 10^5) were seeded in DMEM containing 10% serum in a 24-well plate at 37°C in a CO2 incubator overnight. The cells were infected with JFH-1 and incubated with or without 2 μM telaprevir. After 5 days, the parental HCC36 and JFH-1-infected cells were stained with 10 μM of TAT-ΔNS3/4A-FITCat 37 °C for 1 h. […] After 8 h washing, the fluorescence of viable cells was observed under a fluorescence microscope at the indicated times (Axiovert 200, Carl Zeiss MicroImaging, GmbH, Germany).
FIGURE 2 Specific retention of TAT-ΔNS3/4A-FITC in NS3/4A-HCC36- and HCV-infected cells. […] After culturing for 1 or 8 h, the phase contrast and fluorescence of viable cells were observed under a fluorescence microscope. […]

NS3/4A-HCC36 cells [2] = test: Retention of TAT-ΔNS3/4A-FITC in cells, fluorescence microscopy; assay type: cell-based, Human; settings: fluorescence microscope
Description: as §1
(§2) FIGURE 2 Specific retention of TAT-ΔNS3/4A-FITC in NS3/4A-HCC36- and HCV-infected cells. HCC36 cells, NS3/4A-HCC36 cells, or JFH-1-infected HCC36 cells were incubated with 10 μM TAT-ΔNS3/4A-FITC in the absence or presence of 2 μM telaprevir (NS3/4A protease inhibitor) at 37°C for 1 h. The cells were washed with DMEM containing 10% serum three times per hour. After culturing for 1 or 8 h, the phase contrast and fluorescence of viable cells were observed under a fluorescence microscope. Scale bar: 100 μm.

[3] = system: NS3/4A-HCC36 and HCC36 tumors; test: Histological analysis of FITC fluorescence in tumor sections after i.v. probe; assay type: in vivo, BALB/c nude mice; settings: i.v. 500 μM (in 100 μL), 4 h after injection, frozen sections, n = 3 mice
Description: BALB/c nude mice (n = 3) bearing established HCC36 and NS3/4A-HCC36 (100–200 mm^3) tumors in their right and left hind legs, respectively, were intravenously injected with 500 μM (in 100 μL) TAT-ΔNS3/4A-FITC and sacrificed 4 h later. Tumors were excised and embedded in OCT compound (Tissue-Tek, CA) in liquid nitrogen. The adjacent tumor sections either directly detect the FITC-fluorescent intensity to observe the accumulation of TAT-ΔNS3/4A-FITC probe or stained with a 520 HCV protease Assay Kit (AnaSpec) to visualize NS3/4A activity. The sections were examined on an upright BX4 microscope (Olympus, Melville, NY, USA) or viewed under phase contrast or fluorescence fields on an inverted Axiovert 200 microscope (Carl Zeiss Microimaging, Thornwood, NY, USA).
FIGURE 3 Specific retention of TAT-ΔNS3/4A-FITC in NS3/4A-expressing tumors in vivo. Mice bearing established NS3/4A-HCC36 and HCC36 tumors were injected with 500 μM TAT-NS3/4A-FITC and sacrificed after 4 h. Sections of NS3/4A-HCC36 (upper panels) and HCC36 (lower panels) tumors were stained with 520 HCV protease Assay Kit (AnaSpec) to detect NS3/4A activity in tumor sections. FITC-derived fluorescence (green) and NS3/4A activity (red) were observed under a fluorescence microscope. Scale bar: 1 mm.

HCC36 cells [4] = test: Specific retention of probe via flow cytometry; assay type: cell-based, Human; settings: control HCC36 cells
Description: (§3) We also used the WT probe (GRKKRRQRRR-[…]-LKKKYK-FITC) and the scrambled sequence probe (GRKKRRQRRR-[…]-LKKKYK) that could not be activated by protease as a control group to test the specific retention of probe via flow cytometry. HCC36 cells, NS3/4A-HCC36 cells, or JFH-1-infected HCC36 cells were incubated with 10 μM TAT-ΔNS3/4A-FITC or 10 μM TAT-scrambled NS3/4A-FITC in the absence or presence of 2 μM telaprevir (NS3/4A protease inhibitor) at 37 °C for 1 h. The cells were washed with DMEM containing 10% serum three times per hour. After culturing for 1 or 8 h, the fluorescence of viable cells was observed via flow cytometry.
(§4) Supplementary file Image_5.TIF: Supplementary Figure 5 To evaluate the specific retention of probe via flow cytometry, we used the WT probe (GRKKRRQRRR-[…]-LKKKYK-FITC) and the scrambled sequence probe (GRKKRRQRRR-[…]-LKKKYK) that could not be activated by protease as a control group to test the specific retention of probe via flow cytometry. HCC36 cells, NS3/4A-HCC36 cells, or JFH-1-infected HCC36 cells were incubated with 10 μM TAT-ΔNS3/4A-FITC or 10 μM TAT-scrambled NS3/4A-FITC in the absence or presence of 2 μM telaprevir (NS3/4A protease inhibitor) at 37°C for 1 h. The cells were washed with DMEM containing 10% serum three times per hour. After culturing for 1 or 8 h, the fluorescence of viable cells was observed via flow cytometry. Click here for additional data file.

NS3/4A-HCC36 cells [5] = test: Specific retention of probe via flow cytometry; assay type: cell-based, Human
Description: as §3, §4

[6] = system: JFH-1-infected HCC36 cells; test: Specific retention of probe via flow cytometry; assay type: cell-based, Human
Description: as §3, §4

[7] = system: JFH-1-infected HCC36 cells; test: Retention of TAT-ΔNS3/4A-FITC in HCV-infected cells, fluorescence microscopy; assay type: cell-based, Human; settings: fluorescence microscope
Description: Infectious HCV particles were generated as previously described ([Hayashi et al., 2014]). HCC36 cells (1 × 10^5) were seeded in DMEM containing 10% serum in a 24-well plate at 37°C in a CO2 incubator overnight. The cells were infected with JFH-1 and incubated with or without 2 μM telaprevir. After 5 days, the parental HCC36 and JFH-1-infected cells were stained with 10 μM of TAT-ΔNS3/4A-FITCat 37 °C for 1 h. After probe staining, the cells were washed using DMEM containing 10% serum per 20 min until the end of the experiment. After 8 h washing, the fluorescence of viable cells was observed under a fluorescence microscope at the indicated times (Axiovert 200, Carl Zeiss MicroImaging, GmbH, Germany).
as §2

HEK293 cells = settings: HEK293, 0.1–2,000 ug/ml, 72 h, cell viability by cellular ATP synthesis, compared with CPT-11
[8] = 10 μM probe 1 h, washed every 20 min, 8 h
[9] = 10 μM probe, 37°C, 1 h staining
[10] = 10 μM probe + 2 μM telaprevir, 8 h
[11] = 10 μM probe 1 h, washed three times per hour, 8 h

GRKKRRQRRR-DEDEDEDEMEECASH-LKKKYK-FITC [TAT-ΔNS3/4A-FITC]
fluorescence retention after culturing for 8 h (HCC36 cells [1]; [8]): not in control HCC36 cells | fluorescence accumulation after probe staining (HCC36 cells [1]; [9]): strong fluorescence accumulated in each cell | fluorescence retention after culturing for 8 h (NS3/4A-HCC36 cells [2]; 10 μM probe 1 h, washed with DMEM 10% serum every 20 min, 8 h): strong fluorescence only accumulated in NS3/4A-HCC36 cells | fluorescence retention after 8 h in presence of NS3/4A inhibitor (NS3/4A-HCC36 cells [2]; [10]): did not accumulate | fluorescence accumulation after probe staining (NS3/4A-HCC36 cells [2]; [9]): strong fluorescence accumulated in each cell | FITC-derived fluorescence in NS3/4A-HCC36 tumor sections [3]: accumulated in the NS3/4A-HCC3 tumors | fluorescence retention after culturing for 8 h (HCC36 cells [4]; [11]): not in control HCC36 cells | fluorescence after 1 h probe staining (HCC36 cells [4]; 10 μM probe, 37°C, 1 h): strong fluorescence of WT probe accumulated in each cell | fluorescence retention after culturing for 8 h (NS3/4A-HCC36 cells [5]; [11]): strong fluorescence of WT probe only accumulated in NS3/4A-HCC36 cells | fluorescence retention after 8 h in presence of telaprevir (NS3/4A-HCC36 cells [5]; [10]): could block via the 2 μM telaprevir | fluorescence after 1 h probe staining (NS3/4A-HCC36 cells [5]; 10 μM probe, 37°C, 1 h): strong fluorescence of WT probe accumulated in each cell | fluorescence retention after culturing for 8 h [6, 11]: strong fluorescence of WT probe only accumulated in NS3/4A-HCC36 cells and HCV-infected HCC36 cells | fluorescence retention after 8 h in presence of telaprevir [6, 10]: could block via the 2 μM telaprevir | fluorescence after 1 h probe staining ([6]; 10 μM probe, 37°C, 1 h): strong fluorescence of WT probe accumulated in each cell | fluorescence retention after culturing for 8 h [7, 8]: strong fluorescence only accumulated in NS3/4A-HCC36 cells and HCV-infected HCC36 cells | fluorescence retention after 8 h in presence of NS3/4A inhibitor [7, 10]: did not accumulate | fluorescence accumulation after probe staining [7, 9]: strong fluorescence accumulated in each cell | in vitro toxicity, growth of HEK293 (HEK293 cells): could not inhibit the growth of HEK293
